The values below come from PubChem BioAssay AID330 (DTP/NCI, 2004).

The experiment concerns P388 leukemia ip, CD2F1 mice, survival T/C. The experiment can be described thus: NCI In Vivo Anticancer Drug Screen. Data for tumor model P388 Leukemia (intraperitoneal) in CD2F1 (CDF1) mice. The settings on record: endpoint: median survival time, higher = longer survival. A digest of the protocol:
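Mice carrying the transplanted tumor received test compound or vehicle. Survival was recorded in each group, and the value is the treated-group measurement divided by that of the vehicle-treated control group.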

[1] abbreviates: dose: 25.0 mg/kg/injection, schedule: Q01DX009 (ip), vehicle: other.
The mark [2] stands for this setting: dose: 50.0 mg/kg/injection, schedule: Q01DX009 (ip), vehicle: other.
Where [3] appears, read: dose: 100.0 mg/kg/injection, schedule: Q01DX009 (ip), vehicle: other.
Where [4] appears, read: dose: 60.0 mg/kg/injection, schedule: Q01DX005 (ip), vehicle: saline with Tween-80.
[5] abbreviates: dose: 120.0 mg/kg/injection, schedule: Q01DX005 (ip), vehicle: saline with Tween-80.
Where [6] appears, read: dose: 400.0 mg/kg/injection, schedule: Q01DX009 (ip), vehicle: saline with Tween-80.
[7] abbreviates: dose: 50.0 mg/kg/injection, schedule: Q01DX009 (ip), vehicle: saline with Tween-80.
[8] abbreviates: dose: 100.0 mg/kg/injection, schedule: Q01DX009 (ip), vehicle: saline with Tween-80.
[9] abbreviates: dose: 200.0 mg/kg/injection, schedule: Q01DX009 (ip), vehicle: saline with Tween-80.
[10] abbreviates: dose: 50.0 mg/kg/injection, schedule: Q01DX005 (ip), vehicle: saline with Tween-80.
[11] abbreviates: dose: 100.0 mg/kg/injection, schedule: Q01DX005 (ip), vehicle: saline with Tween-80.
Setting [12] is: dose: 200.0 mg/kg/injection, schedule: Q01DX005 (ip), vehicle: saline with Tween-80.

Where “and” joins values, the source holds several entries; their conditions need not be identical. Equal entries are not always repeated. Inconclusive results and toxic doses are left out.

Turning to `CC([NH-])C[NH-].O=[N+]([O-])O.O=[N+]([O-])O.[Pt+2]` (stereo unspecified), the T/C was 153 % of control (dose: 6.25 mg/kg/injection, schedule: Q04DX002 (ip), vehicle: saline); 100 % of control and 98 % of control (dose: 12.5 mg/kg/injection, schedule: Q04DX002 (ip), vehicle: saline).
As for `O=C(Nc1cnns1)Oc1ccccc1`, the T/C is 117 % of control (dose: 12.5 mg/kg/injection, schedule: Q01DX009 (ip), vehicle: other); 92 % of control under setting [1]; 93 % of control under setting [2]; 92 % of control under setting [3]; 97 % of control (dose: 200.0 mg/kg/injection, schedule: Q01DX009 (ip), vehicle: other).
As for `COc1nc(NC2OC(CO)C(O)C(O)C2O)c(C(=O)CCl)c(=O)n1C` (stereo unspecified), the T/C by setting is: under setting [4], 92 % of control; under setting [5], 87 % of control; (dose: 240.0 mg/kg/injection, schedule: Q01DX005 (ip), vehicle: saline with Tween-80) 95 % of control and 96 % of control.
`C[CH2][Ge]([CH2]C)[CH2]C.C[CH2][Ge]([CH2]C)[CH2]C.[CH3][Ge][CH3]`: the T/C is, setting by setting: (dose: 50.0 mg/kg/injection, schedule: Q01DX009 (ip), vehicle: saline) 90 % of control; (dose: 100.0 mg/kg/injection, schedule: Q01DX009 (ip), vehicle: saline) 90 % of control; (dose: 200.0 mg/kg/injection, schedule: Q01DX009 (ip), vehicle: saline) 92 % of control.
`COC(=O)c1cc(-c2cccnc2)[nH]c(=O)c1C#N`: the T/C (dose: 60.0 mg/kg/injection, schedule: Q01DX005 (ip), vehicle: saline) was 104 % of control and the T/C (dose: 120.0 mg/kg/injection, schedule: Q01DX005 (ip), vehicle: saline) is 100 % of control.
Turning to `Cc1cccc(C2(Br)C(=O)c3ccccc3C2=O)c1`, the T/C was 102 % of control (dose: 100.0 mg/kg/injection, schedule: Q04DX002 (ip), vehicle: saline); 103 % of control (dose: 200.0 mg/kg/injection, schedule: Q04DX002 (ip), vehicle: saline); 102 % of control (dose: 400.0 mg/kg/injection, schedule: Q04DX002 (ip), vehicle: saline).
For `CN(N=O)C(=O)NCCCCCNC(=O)N(C)N=O`, the T/C is 100 % of control (dose: 100.0 mg/kg/injection, schedule: Q04DX003 (ip), vehicle: saline with Tween-80); 104 % of control (dose: 200.0 mg/kg/injection, schedule: Q04DX003 (ip), vehicle: saline with Tween-80); 150 % of control and 163 % of control under setting [6]; 104 % of control (dose: 400.0 mg/kg/injection, schedule: Q04DX003 (ip), vehicle: saline with Tween-80); 163 % of control (dose: 600.0 mg/kg/injection, schedule: Q01DX009 (ip), vehicle: saline with Tween-80).
Turning to `COc1ccc(C2C3CCN2CC3)cc1` (stereo unspecified), the T/C runs as follows: (dose: 6.25 mg/kg/injection, schedule: Q01DX009 (ip), vehicle: saline) 111 % of control; (dose: 12.5 mg/kg/injection, schedule: Q01DX009 (ip), vehicle: saline) 109 % of control.
With `COc1cc(Br)cc(C(=O)O)c1OC`, the T/C by setting is: under setting [1], 101 % of control; under setting [2], 106 % of control; under setting [7], 93 % of control; under setting [3], 102 % of control; under setting [8], 93 % of control; under setting [9], 100 % of control. Besides, the T/C under setting [6] was 102 % of control.
For `CN(C)CCC(=O)C(=Cc1c(Cl)cccc1Cl)C(=O)CCN(C)C`, the T/C (dose: 7.5 mg/kg/injection, schedule: Q01DX005 (ip), vehicle: saline) is 119 % of control and 120 % of control; the T/C (dose: 15.0 mg/kg/injection, schedule: Q01DX005 (ip), vehicle: saline) was 120 % of control and 123 % of control.
As for `O=C(/C=C/c1ccccc1)O[C@@H]1CC2CC1C[C@@H]2c1cnc[nH]1` (stereo partly specified), the T/C runs as follows: (dose: 25.0 mg/kg/injection, schedule: Q04DX002 (ip), vehicle: saline with Tween-80) 98 % of control; (dose: 50.0 mg/kg/injection, schedule: Q04DX002 (ip), vehicle: saline with Tween-80) 100 % of control; (dose: 100.0 mg/kg/injection, schedule: Q04DX002 (ip), vehicle: saline with Tween-80) 99 % of control.
Take `O=c1/c(=C/c2ccccc2)sc2nc(-c3ccccc3)nn12`: the T/C is 87 % of control (dose: 12.5 mg/kg/injection, schedule: Q01DX009 (ip), vehicle: Klucel (hydroxypropylcellulose) (HPC)); 88 % of control (dose: 25.0 mg/kg/injection, schedule: Q01DX009 (ip), vehicle: Klucel (hydroxypropylcellulose) (HPC)); 89 % of control and 91 % of control (dose: 50.0 mg/kg/injection, schedule: Q01DX009 (ip), vehicle: Klucel (hydroxypropylcellulose) (HPC)); 107 % of control (dose: 100.0 mg/kg/injection, schedule: Q01DX009 (ip), vehicle: Klucel (hydroxypropylcellulose) (HPC)); 107 % of control (dose: 200.0 mg/kg/injection, schedule: Q01DX009 (ip), vehicle: Klucel (hydroxypropylcellulose) (HPC)).
For the compound `COC(CNC(c1ccccc1)C(O)c1ccccc1)(OC)OC` (stereo unspecified), the T/C (dose: 100.0 mg/kg/injection, schedule: Q01DX001 (ip), vehicle: saline with Tween-80) is 97 % of control; the T/C (dose: 200.0 mg/kg/injection, schedule: Q01DX001 (ip), vehicle: saline with Tween-80) is 97 % of control; the T/C (dose: 400.0 mg/kg/injection, schedule: Q01DX001 (ip), vehicle: saline with Tween-80) was 97 % of control.
Consider `Cn1ncc(=O)c(Cl)c1Cl`, for which the T/C is 95 % of control under setting [10], 101 % of control under setting [11] and 102 % of control under setting [12].
For `Nc1ccc(SSc2ccc(Nc3ccnc4cc(Cl)ccc34)cc2)cc1` the same measures were 92 % of control, 93 % of control and 91 % of control.
In the case of `O=c1[nH]nc(-c2ccccc2)c2c(/C=C/c3ccccc3)onc12`, the T/C by setting is: under setting [4], 100 % of control; under setting [5], 98 % of control.
`CSC(=S)c1ccccc1NS(=O)(=O)c1ccccc1`: the T/C by setting is: (dose: 100.0 mg/kg/injection, schedule: Q04DX003 (ip), vehicle: saline) 113 % of control; (dose: 200.0 mg/kg/injection, schedule: Q04DX003 (ip), vehicle: saline) 103 % of control; (dose: 400.0 mg/kg/injection, schedule: Q04DX003 (ip), vehicle: saline) 108 % of control.
Turning to `O=C(O)c1ccccc1C(=O)n1cnc2ccccc21`, the T/C is 87 % of control under setting [7], 94 % of control under setting [8] and 90 % of control under setting [9].
For the compound `c1ccc(N2CCN(C(c3cccs3)N3CCN(c4ccccc4)CC3)CC2)cc1`, the T/C runs as follows: under setting [4], 100 % of control; under setting [5], 99 % of control.
In the case of `CCCCSc1nn(CCC#N)c(=O)[nH]c1=O`, the T/C (dose: 25.0 mg/kg/injection, schedule: Q01DX005 (ip), vehicle: water) is 98 % of control; the T/C (dose: 50.0 mg/kg/injection, schedule: Q01DX005 (ip), vehicle: water) is 100 % of control; the T/C (dose: 100.0 mg/kg/injection, schedule: Q01DX005 (ip), vehicle: water) is 103 % of control; the T/C (dose: 200.0 mg/kg/injection, schedule: Q01DX005 (ip), vehicle: water) is 100 % of control.
With `CC1CN(C2CCCCC2)CO1` (stereo unspecified), the T/C runs as follows: (dose: 12.5 mg/kg/injection, schedule: Q01DX005 (ip), vehicle: saline) 104 % of control and 105 % of control; (dose: 25.0 mg/kg/injection, schedule: Q01DX005 (ip), vehicle: saline) 104 % of control and 112 % of control; (dose: 50.0 mg/kg/injection, schedule: Q01DX005 (ip), vehicle: saline) 117 % of control and 118 % of control and 124 % of control; (dose: 100.0 mg/kg/injection, schedule: Q01DX005 (ip), vehicle: saline) 121 % of control and 124 % of control; (dose: 200.0 mg/kg/injection, schedule: Q01DX005 (ip), vehicle: saline) 109 % of control.
Consider `Cc1ccc(/[N+]([O-])=N/N2C(=O)c3ccccc3C2=O)cc1`, for which the T/C was 101 % of control (dose: 25.0 mg/kg/injection, schedule: Q01DX005 (ip), vehicle: Klucel (hydroxypropylcellulose) (HPC)); 106 % of control (dose: 50.0 mg/kg/injection, schedule: Q01DX005 (ip), vehicle: Klucel (hydroxypropylcellulose) (HPC)); 108 % of control (dose: 100.0 mg/kg/injection, schedule: Q01DX005 (ip), vehicle: Klucel (hydroxypropylcellulose) (HPC)).
`CCCC(O)C(NC(=O)c1ccccc1)C(=O)O` (stereo unspecified): the T/C was 92 % of control under setting [7]; 98 % of control and 95 % of control under setting [8]; 95 % of control and 98 % of control under setting [9].
